Test results from ChEMBL document CHEMBL1150636, “Antiemetic principles of Alpinia officinarum” (2002).

Tested on: Gallus gallus
Test: Antiemetic activity against copper sulphate-induced emesis in young chicks assessed as decrease in retching at 50 mg/kg, ip measured for 10 mins
Type: functional
Conditions: route intraperitoneal

Row | SMILES | inhibition in vivo at 50 mg/kg
1 | COc1cc(CC[C@@H](O)CC(=O)CCc2ccc(O)cc2)ccc1O | 38.3%
2 | Oc1ccc(CC[C@@H](O)C[C@H](O)CCc2ccccc2)cc1 | 37.7%
3 | COc1cc(CCC(=O)C[C@H](O)CCc2ccc(O)cc2)ccc1O | 12.4%
4 | CCCCCCCCCCCCCCCC(=O)OC[C@H]1O[C@@H](O[C@H]2CC[C@@]3(C)C(=CC[C@H]4[C@@H]5CC[C@H]([C@H](C)CC[C@H](CC)C(C)C)[C@@]5(C)CC[C@@H]43)C2)[C@H](O)[C@@H](O)[C@@H]1O | 50.9%
5 | COc1cc(CCC(O)CC(O)CCc2ccccc2)ccc1O (stereo not drawn) | 45.7%

Tested on: Gallus gallus
Test: Antiemetic activity against copper sulfate-induced emesis in young chicks assessed as decrease in retching at 20 mg/kg, ip measured for 10 mins
Type: functional
Conditions: route intraperitoneal

Row | SMILES | inhibition in vivo at 20 mg/kg
6 | COc1ccc(-c2oc3cc(O)cc(O)c3c(=O)c2O)cc1 [KAEMPFERIDE] | 63.3%
7 | O=C(CCc1ccccc1)CC(O)CCc1ccc(O)cc1 (stereo not drawn) | 71%
8 | O=c1c(O)c(-c2ccccc2)oc2cc(O)cc(O)c12 [GALANGIN] | 25.4%
